Test results reported in ChEMBL document CHEMBL3885861, “Open TG-GATES”.

Species on record: Rattus norvegicus
Experiment: Open TG-GATES - Regimen: Single
Format: toxicity, organism-based, Sprague-Dawley
Set-up: regimen Single, gender Male, age 6 weeks
Details: in vivo, po, 0 mg/kg, route gavage, dose level Control; for APTT / Bas / Eos / Fbg / Hb / Ht / Lym / MCH / MCHC / MCV / Mono / Neu / PT / Plat / RBC / Ret / WBC: tissue Blood; for KIDNEY_L / KIDNEY_R / KIDNEY_TOTAL: tissue Kidney; for LIVER: tissue Liver; for A/G / ALP / ALT / AST / BUN / CRE / Ca / Cl / DBIL / GLC / IP / K / LDH / Na / PL / RALB / TBIL / TC / TG / TP / gamma-GTP: tissue Plasma

## NNC(=O)c1ccncc1 [ISONIAZID]
3 h
  TERMINAL_BW: 225.5 g
  APTT: 18.5 s
  Bas: 0%
  Eos: 1%
  Fbg: 232.2 mg/dL
  Hb: 13.5 g/dL
  Ht: 37.8%
  Lym: 80%
  MCH: 21.5 pg
  MCHC: 35.7%
  MCV: 60.3 fL
  Mono: 3%
  Neu: 15.6%
  PT: 11.8 s
  Plat: 121.9 x10_4/uL
  RBC: 627.2 x10_4/ul
  Ret: 8.1%
  WBC: 82.1 x10_2/uL
  KIDNEY_L: 1 g
  KIDNEY_R: 0.9 g
  KIDNEY_TOTAL: 1.9 g
  LIVER: 10.5 g
  A/G: 1.5
  ALP: 945.2 IU/L
  ALT: 34.2 IU/L
  AST: 66 IU/L
  BUN: 10 mg/dL
  CRE: 0.4 mg/dL
  Ca: 10.9 mg/dL
  Cl: 104.2 meq/L
  DBIL: 0.066 mg/dL
  GLC: 195.6 mg/dL
  IP: 8.8 mg/dL
  K: 4.1 meq/L
  LDH: 160 IU/L
  Na: 141.8 meq/L
  PL: 148.2 mg/dL
  RALB: 3.3 g/dL
  TBIL: 0.1 mg/dL
  TC: 80.8 mg/dL
  TG: 90.6 mg/dL
  TP: 5.5 g/dL
  gamma-GTP: 1.2 IU/L
6 h
  TERMINAL_BW: 221.6 g
  APTT: 19.9 s
  Bas: 0%
  Eos: 1%
  Fbg: 230 mg/dL
  Hb: 13.5 g/dL
  Ht: 37.6%
  Lym: 80.8%
  MCH: 21.8 pg
  MCHC: 35.8%
  MCV: 60.9 fL
  Mono: 3%
  Neu: 14.6%
  PT: 12.3 s
  Plat: 125.3 x10_4/uL
  RBC: 618.4 x10_4/ul
  Ret: 8%
  WBC: 96.3 x10_2/uL
  KIDNEY_L: 1 g
  KIDNEY_R: 0.9 g
  KIDNEY_TOTAL: 1.9 g
  LIVER: 9.2 g
  A/G: 1.6
  ALP: 976.8 IU/L
  ALT: 31.2 IU/L
  AST: 64.8 IU/L
  BUN: 8.8 mg/dL
  CRE: 0.4 mg/dL
  Ca: 10.4 mg/dL
  Cl: 104.2 meq/L
  DBIL: 0.068 mg/dL
  GLC: 197.6 mg/dL
  IP: 9.8 mg/dL
  K: 4.1 meq/L
  LDH: 156.6 IU/L
  Na: 141.2 meq/L
  PL: 133.8 mg/dL
  RALB: 3.3 g/dL
  TBIL: 0.1 mg/dL
  TC: 78.4 mg/dL
  TG: 52.8 mg/dL
  TP: 5.4 g/dL
  gamma-GTP: 1.2 IU/L
9 h
  TERMINAL_BW: 220.2 g
  APTT: 17.3 s
  Bas: 0%
  Eos: 0.8%
  Fbg: 221.8 mg/dL
  Hb: 13.5 g/dL
  Ht: 37.7%
  Lym: 79.2%
  MCH: 21.8 pg
  MCHC: 35.7%
  MCV: 61.1 fL
  Mono: 2%
  Neu: 16.6%
  PT: 12.5 s
  Plat: 120.7 x10_4/uL
  RBC: 617.4 x10_4/ul
  Ret: 7.7%
  WBC: 101.6 x10_2/uL
  KIDNEY_L: 0.9 g
  KIDNEY_R: 0.9 g
  KIDNEY_TOTAL: 1.9 g
  LIVER: 8.6 g
  A/G: 1.7
  ALP: 780 IU/L
  ALT: 31.4 IU/L
  AST: 70 IU/L
  BUN: 9.6 mg/dL
  CRE: 0.4 mg/dL
  Ca: 10.5 mg/dL
  Cl: 104.6 meq/L
  DBIL: 0.066 mg/dL
  GLC: 200.6 mg/dL
  IP: 9.7 mg/dL
  K: 3.8 meq/L
  LDH: 237.4 IU/L
  Na: 142.2 meq/L
  PL: 137.6 mg/dL
  RALB: 3.4 g/dL
  TBIL: 0.1 mg/dL
  TC: 74.8 mg/dL
  TG: 54.6 mg/dL
  TP: 5.4 g/dL
  gamma-GTP: 1 IU/L
24 h
  TERMINAL_BW: 234.8 g
  APTT: 18.6 s
  Bas: 0.4%
  Eos: 1.2%
  Fbg: 217.8 mg/dL
  Hb: 13.8 g/dL
  Ht: 38%
  Lym: 76%
  MCH: 22.6 pg
  MCHC: 36.2%
  MCV: 62.3 fL
  Mono: 2.8%
  Neu: 19.2%
  PT: 11.5 s
  Plat: 127.6 x10_4/uL
  RBC: 610 x10_4/ul
  Ret: 7.2%
  WBC: 106 x10_2/uL
  KIDNEY_L: 1 g
  KIDNEY_R: 1 g
  KIDNEY_TOTAL: 2 g
  LIVER: 10.9 g
  A/G: 1.6
  ALP: 930.6 IU/L
  ALT: 34 IU/L
  AST: 68.8 IU/L
  BUN: 14.8 mg/dL
  CRE: 0.4 mg/dL
  Ca: 10.9 mg/dL
  Cl: 103.8 meq/L
  DBIL: 0.058 mg/dL
  GLC: 191 mg/dL
  IP: 7.7 mg/dL
  K: 4.2 meq/L
  LDH: 190.8 IU/L
  Na: 141.8 meq/L
  PL: 154 mg/dL
  RALB: 3.5 g/dL
  TBIL: 0.1 mg/dL
  TC: 80 mg/dL
  TG: 114 mg/dL
  TP: 5.6 g/dL
  gamma-GTP: 1 IU/L
